How the values were obtained:
glioblastoma tumor = settings: one human study; cited from earlier work
glioblastoma = assay: Course of glioblastoma (MRI/PET) under chemotherapy with or without topical dronabinol (same patient); format: in vivo, human; settings: for adverse effects that led to discontinuation of chemotherapy: patient with glioblastoma
Procedure: By way of reminder, the patient described in the two examples set forth above was diagnosed with glioblastoma in February 2010. Approximately 95% of the tumor was surgically removed within 3 days of diagnosis. Following the surgery, the patient was treated with radiation, as well as by chemotherapy with a combination of temozolamide, topotecan, and bevacizumab. […] In May of 2011, the combination therapy was discontinued and the patient received only maintenance bevacizumab. MRI scans were performed every two months to monitor any changes in the brain.
The patient resumed chemotherapy with a combination of temozolamide, etoposide, and bevacizumab. […] The chemotherapy regimen was changed to carboplatin, irinotecan, together with bevacizumab.
As mentioned above, the patient was treated with 2.5 mg topical dronabinol beginning in December 2012 and continuing to the present.
On Mar. 19, 2014, a further increase in size of the tumor was noted. The secondary tumor was unchanged.
In early April 2014, the patient was again treated with temozolamide and bevacizumab.

[1] = test system: chemo brain and brain fog (chemotherapy-associated cognitive or emotional impairment); assay: Daily low-dose topical dronabinol for chemo brain and brain fog induced by long term chemotherapy and radiation (single patient); settings: 2.5 mg daily applied to forehead
Procedure: A person was diagnosed with glioblastoma in February 2010 and underwent immediate surgery to remove the tumor. Within 6 weeks of the surgery, they began radiotherapy and chemotherapy with a combination of temozolamide, topotecan, and bevacizumab.
Beginning in December of 2012 and continuing through March of 2014, the patient, who was not undergoing any chemotherapy at this time, was treated daily with 2.5 mg of dronabinol applied to their forehead. Daily evaluation by their caretaker and quarterly evaluations by a medical institution were documented during this treatment period.

[2] = test system: chemo brain and brain fog; assay: Low dose topical dronabinol for chemo brain and brain fog induced by short-term chemotherapy (same patient)
Procedure: The patient was treated again with temozolamide, and bevacizumab.
Each morning, the patient was treated with dronabinol as described in Example 1 supra.

For `CCCCCc1cc(O)c2c(c1)OC(C)(C)[C@@H]1CCC(C)=C[C@@H]21` [THC, tetrahydrocannabinol], the “benefit of THC instilled into a glioblastoma tumor” value (glioblastoma tumor) is given as “failed to demonstrate a clear-cut benefit”.

For `CCCCCc1cc(O)c2c(c1)OC(C)(C)[C@@H]1CCC(C)=C[C@@H]21` [dronabinol, (6aR,10aR)-6a,7,8,10a-tetrahydro-6,6,9-trimethyl-3-pentyl-6H-dibenzo[b,d]-pyran-1-ol], the “tumor response by MRI, chemotherapy co-administered with topical dronabinol” value (glioblastoma; 2.5 mg topical dronabinol continued with temozolamide and bevacizumab, MRI 6 weeks after initiation of chemotherapy) was “shrinkage of both the primary tumor that had regrown into the extirpated space and the secondary tumor”, the “primary tumor by MRI, topical dronabinol without chemotherapy” value (glioblastoma; 2.5 mg topical dronabinol, MRI December 6, 2013 and Mar. 19, 2014) was “increase in size of the primary tumor” and the “secondary tumor by MRI, topical dronabinol without chemotherapy” value (glioblastoma; 2.5 mg topical dronabinol, Mar. 19, 2014) was “unchanged”. The “cognitive functions, emotional skills, and social interaction skills” value ([1]; December 2012 to March 2014) was “showed daily and long term improvement”, the “hallucinatory or adverse cognitive effects” value ([1]; December 2012 to March 2014) was “no hallucinatory or adverse cognitive effects were observed” and the “time to signs of improved recognition, memory, and social interaction after initiation of treatment” value ([1]; patient not on chemotherapy) was 1 to 2 days. For the same compound, the “hallucinatory or adverse cognitive effects” value ([2]; 2.5 mg topical each morning during chemotherapy) was “no hallucinatory or adverse cognitive effects were observed”, the “time to significant diminishment of brain fog after each dose” value ([2]; 2.5 mg topical each morning during temozolamide and bevacizumab chemotherapy) was no more than 45 min and the “duration of the effects of administration” value ([2]; 2.5 mg topical each morning, six-week period) was “lasted until the following morning”.

With `O=NN(CCCl)C(=O)NC1CCCCC1` [lomustine] the “adverse effects that led to discontinuation of chemotherapy” value (glioblastoma) was “hypertension and proteinuria”.

In the case of Bevacizumab: chemotherapy agent, the “adverse effects that led to discontinuation of chemotherapy” value (glioblastoma) is reported as “hypertension and proteinuria”.

— patent publication US20160271100A1, “METHOD FOR TREATING TUMORS AND RADIOTHERAPY- AND CHEMOTHERAPY-[…] OR EMOTIONAL […] CANNABINOIDS” (GLIA LLC, priority 2014, published 2016)
